Assay results as given in ChEMBL document CHEMBL1201862, “PubChem BioAssay data set” (2004).
The source made the active and inactive calls.

How the values were obtained:
[1] = inhibitors of Bluetongue virus cytopathic effect, confirmation, arbovirus, BSR cells (AID 1250); format: functional;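 further: protection from viral cytopathic effect measured as cell viability by ATP luminescence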
[2] = target: T1, Calpain-2 catalytic subunit (Sus scrofa, UniProt P43367); assay: pig calpain II inhibitor potency, dose response, biochemical, fluorogenic peptide substrate (AID 1420); format: functional
T1 sequence (P43367 whole entry): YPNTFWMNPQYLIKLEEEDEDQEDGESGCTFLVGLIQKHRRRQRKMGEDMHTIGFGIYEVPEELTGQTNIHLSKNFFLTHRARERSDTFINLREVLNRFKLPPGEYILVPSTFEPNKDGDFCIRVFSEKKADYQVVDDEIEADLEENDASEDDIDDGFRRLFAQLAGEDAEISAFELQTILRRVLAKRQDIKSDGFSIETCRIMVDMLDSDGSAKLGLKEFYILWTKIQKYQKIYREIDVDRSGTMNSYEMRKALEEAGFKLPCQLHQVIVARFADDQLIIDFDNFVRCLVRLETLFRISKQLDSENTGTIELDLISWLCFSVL

Mucolipin-3 = Mucolipin-3 (Homo sapiens, UniProt Q8TDD5); assay: Dose response cell-based high-throughput screening assay for agonists of the transient receptor potential channel ML3 (TRPML3). [Related pubchem assays: 1526, 1424, 1448 ]; format: functional
Mucolipin-3, sequence (Q8TDD5 whole entry): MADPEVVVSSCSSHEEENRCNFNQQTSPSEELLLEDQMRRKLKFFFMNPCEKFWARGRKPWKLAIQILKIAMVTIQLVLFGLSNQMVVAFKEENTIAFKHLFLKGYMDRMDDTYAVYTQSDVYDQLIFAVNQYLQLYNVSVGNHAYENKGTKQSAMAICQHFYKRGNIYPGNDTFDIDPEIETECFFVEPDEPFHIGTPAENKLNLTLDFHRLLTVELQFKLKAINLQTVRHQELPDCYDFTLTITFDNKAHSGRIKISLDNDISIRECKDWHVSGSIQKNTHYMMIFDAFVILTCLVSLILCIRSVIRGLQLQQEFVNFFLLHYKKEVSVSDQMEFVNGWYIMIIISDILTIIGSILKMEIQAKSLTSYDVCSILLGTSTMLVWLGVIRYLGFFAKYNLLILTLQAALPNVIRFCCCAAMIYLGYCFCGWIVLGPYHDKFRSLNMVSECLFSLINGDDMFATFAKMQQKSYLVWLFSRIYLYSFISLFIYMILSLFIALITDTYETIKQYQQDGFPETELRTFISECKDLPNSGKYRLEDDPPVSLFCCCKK

Ion channel NompC = Ion channel NompC (Danio rerio, UniProt Q7T1G6); assay: Fluorescence counterscreen assay for TRPML3 agonists: dose response cell-based high-throughput screening assay to identify agonists of the transient receptor potential channel N1 (TRPN1). [Related pubchem assays: 1526, 1424, 1448 ]; format: functional
Ion channel NompC, sequence (Q7T1G6 whole entry): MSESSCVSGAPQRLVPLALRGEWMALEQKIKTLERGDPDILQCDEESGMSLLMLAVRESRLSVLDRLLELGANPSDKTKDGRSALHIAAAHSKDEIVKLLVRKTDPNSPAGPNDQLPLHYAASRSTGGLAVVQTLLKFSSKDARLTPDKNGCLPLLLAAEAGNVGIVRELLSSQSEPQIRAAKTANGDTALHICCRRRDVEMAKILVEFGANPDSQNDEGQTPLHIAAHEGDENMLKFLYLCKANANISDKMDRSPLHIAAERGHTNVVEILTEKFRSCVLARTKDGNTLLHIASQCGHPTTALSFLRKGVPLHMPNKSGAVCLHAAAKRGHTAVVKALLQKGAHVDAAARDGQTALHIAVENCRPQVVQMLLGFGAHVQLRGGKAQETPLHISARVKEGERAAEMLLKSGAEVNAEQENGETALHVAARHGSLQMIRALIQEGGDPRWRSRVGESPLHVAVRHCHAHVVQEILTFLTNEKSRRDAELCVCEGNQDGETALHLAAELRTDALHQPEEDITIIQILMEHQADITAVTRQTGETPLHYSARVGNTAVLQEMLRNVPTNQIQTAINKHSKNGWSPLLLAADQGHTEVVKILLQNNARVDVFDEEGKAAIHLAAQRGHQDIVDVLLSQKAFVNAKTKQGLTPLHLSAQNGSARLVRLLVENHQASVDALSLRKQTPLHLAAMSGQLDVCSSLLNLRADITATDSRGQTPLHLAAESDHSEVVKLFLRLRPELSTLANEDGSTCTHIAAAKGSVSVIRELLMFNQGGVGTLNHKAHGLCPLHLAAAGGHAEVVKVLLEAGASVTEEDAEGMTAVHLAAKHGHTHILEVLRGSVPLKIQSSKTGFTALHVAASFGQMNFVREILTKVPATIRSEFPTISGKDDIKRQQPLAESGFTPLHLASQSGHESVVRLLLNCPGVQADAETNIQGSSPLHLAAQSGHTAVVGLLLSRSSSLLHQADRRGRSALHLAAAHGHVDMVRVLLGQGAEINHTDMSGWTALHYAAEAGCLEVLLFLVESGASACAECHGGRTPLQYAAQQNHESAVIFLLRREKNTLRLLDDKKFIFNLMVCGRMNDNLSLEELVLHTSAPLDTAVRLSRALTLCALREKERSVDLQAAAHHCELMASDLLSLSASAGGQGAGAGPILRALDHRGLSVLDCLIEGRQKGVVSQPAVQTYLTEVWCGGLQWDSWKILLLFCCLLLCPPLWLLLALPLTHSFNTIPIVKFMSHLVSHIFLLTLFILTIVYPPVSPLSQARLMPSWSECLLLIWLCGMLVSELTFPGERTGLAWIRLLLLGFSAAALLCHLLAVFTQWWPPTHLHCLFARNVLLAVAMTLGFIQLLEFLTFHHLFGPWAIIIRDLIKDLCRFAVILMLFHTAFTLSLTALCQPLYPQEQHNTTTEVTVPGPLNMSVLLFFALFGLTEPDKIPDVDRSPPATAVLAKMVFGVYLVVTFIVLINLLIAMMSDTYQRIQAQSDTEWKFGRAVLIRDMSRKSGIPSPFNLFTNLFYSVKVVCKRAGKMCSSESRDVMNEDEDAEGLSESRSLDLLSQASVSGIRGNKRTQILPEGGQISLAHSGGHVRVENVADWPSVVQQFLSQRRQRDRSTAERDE

[3] = target: T2, E3 ubiquitin-protein ligase XIAP (Homo sapiens, UniProt P98170); assay: XIAP antagonists, biochemical, IAP family, fluorescence polarization (AID 1018); format: functional
T2 sequence (P98170 whole entry): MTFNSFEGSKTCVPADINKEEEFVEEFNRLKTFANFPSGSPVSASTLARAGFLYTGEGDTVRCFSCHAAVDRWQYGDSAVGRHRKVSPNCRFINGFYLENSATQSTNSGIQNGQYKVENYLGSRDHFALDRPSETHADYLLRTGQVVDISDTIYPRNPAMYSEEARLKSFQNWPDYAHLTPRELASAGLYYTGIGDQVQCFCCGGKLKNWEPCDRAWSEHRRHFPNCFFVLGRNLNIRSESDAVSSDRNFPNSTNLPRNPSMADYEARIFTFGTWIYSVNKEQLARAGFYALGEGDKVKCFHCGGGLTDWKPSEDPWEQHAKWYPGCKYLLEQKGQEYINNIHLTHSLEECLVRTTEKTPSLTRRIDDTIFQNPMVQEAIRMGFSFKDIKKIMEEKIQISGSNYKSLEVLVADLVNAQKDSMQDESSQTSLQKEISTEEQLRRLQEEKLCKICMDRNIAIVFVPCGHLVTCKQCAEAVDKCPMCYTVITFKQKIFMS

[4] = target: T2, E3 ubiquitin-protein ligase XIAP; assay: Counter Screen using XIAP-Bir3 for Chemical Antagonists of Bir1/2 domains of IAP-family anti-apoptotic proteins. [Related pubchem assays (depositor defined):AID1018, AID1449, AID1514, AID1638, AID1749, AID1750, AID488957, AID488963]
Protein RecA = target: T3, Protein RecA (Mycobacterium tuberculosis, UniProt P9WHJ3); assay: Fluorescence Cell-Free Homogeneous Dose Retest to Identify Inhibitors of RecA-Intein Splicing Activity. [Related pubchem assays (depositor defined):AID2097, AID2223, AID489010, AID492950]; format: functional
T3 sequence (P9WHJ3 whole entry): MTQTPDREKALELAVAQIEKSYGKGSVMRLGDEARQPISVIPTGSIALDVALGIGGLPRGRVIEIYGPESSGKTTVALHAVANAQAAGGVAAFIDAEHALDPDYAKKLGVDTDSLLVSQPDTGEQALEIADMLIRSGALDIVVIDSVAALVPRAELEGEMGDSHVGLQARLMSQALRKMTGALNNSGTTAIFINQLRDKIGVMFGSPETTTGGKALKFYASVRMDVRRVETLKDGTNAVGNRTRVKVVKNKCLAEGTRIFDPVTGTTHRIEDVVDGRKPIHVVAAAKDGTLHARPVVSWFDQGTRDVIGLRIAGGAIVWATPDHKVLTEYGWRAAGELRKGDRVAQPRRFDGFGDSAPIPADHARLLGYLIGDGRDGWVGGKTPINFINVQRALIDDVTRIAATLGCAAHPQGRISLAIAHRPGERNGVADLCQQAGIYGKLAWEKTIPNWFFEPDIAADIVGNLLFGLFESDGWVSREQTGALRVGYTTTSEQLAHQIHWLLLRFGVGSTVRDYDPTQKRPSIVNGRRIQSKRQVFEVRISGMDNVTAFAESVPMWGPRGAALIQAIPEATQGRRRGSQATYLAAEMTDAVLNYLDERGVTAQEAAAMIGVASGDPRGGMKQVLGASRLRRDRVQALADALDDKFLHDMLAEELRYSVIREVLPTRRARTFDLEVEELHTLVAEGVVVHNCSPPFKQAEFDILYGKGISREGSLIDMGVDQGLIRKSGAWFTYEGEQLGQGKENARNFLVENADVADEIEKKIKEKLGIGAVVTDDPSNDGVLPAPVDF

Estrogen receptor = target: T4, Estrogen receptor (Homo sapiens, UniProt P03372); assay: potentiators of ERα–SRC-1 coactivator binding, dose response, biochemical, TR-FRET, ERα LBD (AID 737)
T4 sequence (P03372 whole entry): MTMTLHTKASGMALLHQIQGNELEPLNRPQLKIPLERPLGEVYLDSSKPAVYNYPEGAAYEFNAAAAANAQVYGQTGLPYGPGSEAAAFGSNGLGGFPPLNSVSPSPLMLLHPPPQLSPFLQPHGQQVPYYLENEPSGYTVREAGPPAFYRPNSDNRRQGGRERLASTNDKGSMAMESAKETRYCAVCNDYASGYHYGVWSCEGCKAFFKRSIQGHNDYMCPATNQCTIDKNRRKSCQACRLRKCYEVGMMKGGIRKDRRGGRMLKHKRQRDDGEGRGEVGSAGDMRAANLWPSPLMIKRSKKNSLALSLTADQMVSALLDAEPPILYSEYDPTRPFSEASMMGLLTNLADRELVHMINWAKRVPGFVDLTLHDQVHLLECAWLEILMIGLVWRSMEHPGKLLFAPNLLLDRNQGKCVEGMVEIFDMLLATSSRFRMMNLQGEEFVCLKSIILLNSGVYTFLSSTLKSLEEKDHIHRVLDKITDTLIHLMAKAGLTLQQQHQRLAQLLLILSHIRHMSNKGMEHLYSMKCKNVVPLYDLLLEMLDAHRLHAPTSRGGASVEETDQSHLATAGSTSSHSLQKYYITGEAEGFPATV

[5] = target: T5, Replicative DNA helicase DnaB (Mycobacterium tuberculosis, UniProt P9WMR3); assay: DnaB intein splicing inhibitors, dose response, biochemical, cell-free fluorescence (AID 449749); format: functional
T5 sequence (P9WMR3 whole entry): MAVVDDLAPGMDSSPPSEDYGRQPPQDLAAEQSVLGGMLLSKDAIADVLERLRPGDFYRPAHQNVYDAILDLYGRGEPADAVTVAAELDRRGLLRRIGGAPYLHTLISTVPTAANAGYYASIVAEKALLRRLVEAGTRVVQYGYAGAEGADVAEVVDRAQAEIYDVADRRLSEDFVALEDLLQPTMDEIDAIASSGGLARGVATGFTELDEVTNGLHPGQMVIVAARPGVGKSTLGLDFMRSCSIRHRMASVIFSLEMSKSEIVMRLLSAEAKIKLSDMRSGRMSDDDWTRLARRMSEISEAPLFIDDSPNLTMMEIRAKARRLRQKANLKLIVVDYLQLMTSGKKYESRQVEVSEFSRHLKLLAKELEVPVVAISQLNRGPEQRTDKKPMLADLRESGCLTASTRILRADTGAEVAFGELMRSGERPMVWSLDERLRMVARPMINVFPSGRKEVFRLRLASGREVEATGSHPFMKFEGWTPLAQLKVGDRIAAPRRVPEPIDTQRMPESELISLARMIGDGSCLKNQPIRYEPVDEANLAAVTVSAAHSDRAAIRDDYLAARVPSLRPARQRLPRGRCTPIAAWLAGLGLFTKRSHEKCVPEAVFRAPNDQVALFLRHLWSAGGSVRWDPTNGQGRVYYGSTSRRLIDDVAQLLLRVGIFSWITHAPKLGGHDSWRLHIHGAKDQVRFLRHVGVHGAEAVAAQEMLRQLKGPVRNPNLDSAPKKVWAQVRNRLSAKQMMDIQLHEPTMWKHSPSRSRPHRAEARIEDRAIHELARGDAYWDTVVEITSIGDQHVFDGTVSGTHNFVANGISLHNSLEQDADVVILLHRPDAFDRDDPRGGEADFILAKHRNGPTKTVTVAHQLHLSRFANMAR

HEK293 = assay: inhibitors of LMP1-driven NF-kB reporter, dose response, cell-based, HEK293, luciferase, cherry-pick (AID 588343); format: functional; settings: Homo sapiens
[6] = target: Luciferin 4-monooxygenase (Photinus pyralis, UniProt P08659); assay: Counter Screen for Luciferase-based Assay Positives. [Related pubchem assays: 620, 618, 411 ]
Luciferin 4-monooxygenase, sequence (P08659 whole entry): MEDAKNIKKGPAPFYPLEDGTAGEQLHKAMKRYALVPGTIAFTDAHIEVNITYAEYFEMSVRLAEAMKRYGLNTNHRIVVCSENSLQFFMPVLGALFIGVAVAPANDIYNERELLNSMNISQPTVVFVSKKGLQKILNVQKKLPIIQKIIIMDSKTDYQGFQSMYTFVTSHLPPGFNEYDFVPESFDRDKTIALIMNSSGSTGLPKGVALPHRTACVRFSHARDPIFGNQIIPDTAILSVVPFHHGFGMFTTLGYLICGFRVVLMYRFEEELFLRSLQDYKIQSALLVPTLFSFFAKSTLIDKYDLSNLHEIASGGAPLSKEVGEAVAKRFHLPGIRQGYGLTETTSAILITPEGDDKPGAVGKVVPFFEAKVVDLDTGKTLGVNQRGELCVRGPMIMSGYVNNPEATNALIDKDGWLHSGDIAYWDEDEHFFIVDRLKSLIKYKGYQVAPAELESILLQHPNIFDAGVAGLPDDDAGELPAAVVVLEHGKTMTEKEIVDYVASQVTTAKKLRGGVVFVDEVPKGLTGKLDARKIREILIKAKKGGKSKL

HT-1080 = assay: cytotoxicity in HT1080 fibrosarcoma cells, cell-based, fluorescence readout (AID 620); format: functional; settings: Homo sapiens
[7] = Luminescence Cell-Based Dose-Confimation HTS to Identify Inhibitors of 5'UTR Stem-Loop Driven Alpha-Synuclein mRNA Translation in H4 Neuroglioblastoma Cells. [Related pubchem assays: 1827 (Project Summary), 1813 (Primary HTS)]; format: functional
[8] = target: Potassium voltage-gated channel subfamily KQT member 2 (Rattus norvegicus, UniProt O88943, W236L); assay: KCNQ2 channel potentiators, dose response, mechanism study for KCNQ2 potentiator project, cell-based, automated electrophysiology (AID 2603); format: functional
Potassium voltage-gated channel subfamily KQT member 2, sequence (O88943 whole entry W236L): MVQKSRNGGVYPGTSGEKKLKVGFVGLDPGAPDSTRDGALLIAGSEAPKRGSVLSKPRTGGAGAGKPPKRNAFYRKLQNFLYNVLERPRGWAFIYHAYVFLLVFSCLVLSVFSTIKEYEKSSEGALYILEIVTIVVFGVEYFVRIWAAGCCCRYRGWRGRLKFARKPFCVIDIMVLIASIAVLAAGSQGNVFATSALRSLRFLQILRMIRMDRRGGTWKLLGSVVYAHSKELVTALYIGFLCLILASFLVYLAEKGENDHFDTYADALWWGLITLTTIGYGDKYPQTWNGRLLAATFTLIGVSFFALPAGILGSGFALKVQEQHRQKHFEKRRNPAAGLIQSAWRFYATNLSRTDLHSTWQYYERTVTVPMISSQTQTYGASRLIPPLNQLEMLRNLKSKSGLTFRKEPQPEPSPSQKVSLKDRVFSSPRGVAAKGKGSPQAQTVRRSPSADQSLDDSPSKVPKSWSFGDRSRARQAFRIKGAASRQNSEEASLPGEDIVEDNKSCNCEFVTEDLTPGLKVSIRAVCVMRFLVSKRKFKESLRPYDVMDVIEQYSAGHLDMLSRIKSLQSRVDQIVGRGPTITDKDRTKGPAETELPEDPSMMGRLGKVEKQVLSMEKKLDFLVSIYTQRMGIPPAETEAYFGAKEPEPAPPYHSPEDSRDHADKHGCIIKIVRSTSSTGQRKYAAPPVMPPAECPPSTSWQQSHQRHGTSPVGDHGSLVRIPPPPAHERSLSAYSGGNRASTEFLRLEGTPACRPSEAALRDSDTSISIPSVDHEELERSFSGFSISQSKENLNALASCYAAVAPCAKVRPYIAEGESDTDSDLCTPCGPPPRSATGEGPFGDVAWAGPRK

Bcl-2-like protein 10 = target: T6, Bcl-2-like protein 10 (Homo sapiens, UniProt Q9HD36); assay: Biochemical TR3 FP assay of Bcl-B inhibitor potency, EC50 (AID 1243); format: functional
T6 sequence (Q9HD36 whole entry): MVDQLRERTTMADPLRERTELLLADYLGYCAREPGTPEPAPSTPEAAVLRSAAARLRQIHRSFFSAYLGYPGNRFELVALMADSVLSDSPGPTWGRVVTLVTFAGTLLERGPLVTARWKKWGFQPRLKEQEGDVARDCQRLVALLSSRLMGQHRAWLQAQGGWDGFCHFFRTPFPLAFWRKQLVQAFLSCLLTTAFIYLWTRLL

[9] = target: T7, Neuropeptide Y receptor type 2 (Homo sapiens, UniProt P49146); assay: NPY-Y2 antagonist potency, selectivity check, dose response, counter-screen for NPY-Y1 antagonist project, cell-based (AID 1278); format: functional
T7 sequence (P49146 whole entry): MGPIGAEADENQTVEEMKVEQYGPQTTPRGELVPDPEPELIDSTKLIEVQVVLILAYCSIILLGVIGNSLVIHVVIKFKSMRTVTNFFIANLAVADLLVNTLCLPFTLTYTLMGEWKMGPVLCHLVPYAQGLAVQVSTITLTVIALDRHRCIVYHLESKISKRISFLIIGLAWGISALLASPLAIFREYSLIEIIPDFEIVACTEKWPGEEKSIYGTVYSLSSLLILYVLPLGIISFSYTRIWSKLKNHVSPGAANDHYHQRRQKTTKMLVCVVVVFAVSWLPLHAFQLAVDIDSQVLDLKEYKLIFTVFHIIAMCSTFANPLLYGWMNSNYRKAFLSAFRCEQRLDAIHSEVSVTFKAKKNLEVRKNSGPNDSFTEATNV

[10] = target: T8, Neuropeptide Y receptor type 1 (Homo sapiens, UniProt P25929); assay: NPY-Y1 receptor antagonist potency, dose response, cell-based (AID 1277); format: functional
T8 sequence (P25929 whole entry): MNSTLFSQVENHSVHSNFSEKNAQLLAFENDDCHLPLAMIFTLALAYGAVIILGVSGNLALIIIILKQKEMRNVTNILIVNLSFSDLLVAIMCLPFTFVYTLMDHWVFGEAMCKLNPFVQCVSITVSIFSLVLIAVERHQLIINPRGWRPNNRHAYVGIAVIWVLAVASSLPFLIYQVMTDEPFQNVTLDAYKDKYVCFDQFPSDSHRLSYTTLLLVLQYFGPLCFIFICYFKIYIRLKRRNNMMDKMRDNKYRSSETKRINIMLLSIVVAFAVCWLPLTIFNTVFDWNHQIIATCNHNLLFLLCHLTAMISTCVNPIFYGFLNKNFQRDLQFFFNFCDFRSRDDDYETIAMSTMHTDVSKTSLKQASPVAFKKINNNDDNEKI

With `COc1ccc(OC)c(N(CC(=O)N2CCN(c3cc(Cl)ccc3C)CC2)S(C)(=O)=O)c1` the IC50 [1] was 38.9 µM (active) and the IC50 [2] was 11.7 µM (not active).
For `COc1ccc(S(=O)(=O)N2CCC(C)CC2)cc1Br`, the EC50 (Mucolipin-3) was 1.82 µM (active) and the EC50 (Ion channel NompC) was > 29.9 µM (not active).
For `C=C(C)CC1N(c2cccc(OC)c2)C(=O)C2C(C(=O)O)C3C=CC21O3` (configuration not stated), the IC50 [3] was > 100 µM (not active) and the IC50 [4] was > 100 µM (inactive).
For `CCc1n[nH]c2c1C(c1cccc(OC(=O)N3CCOCC3)c1)C(C#N)=C(N)O2` (configuration not stated), the EC50 (Protein RecA) was 9.88 µM (active), the EC50 (Estrogen receptor) was 6.39 µM (not active) and the AC50 [5] was 20.3 µM (active).
In the case of `CC(=O)c1sc(NC(=O)C2COc3ccccc3O2)nc1C` (configuration not stated), the AC50 (HEK293) is reported as 2.85 µM (active), the EC50 [6] is reported as 3.97 µM (active) and the EC50 (HT-1080) is reported as > 50 µM (not active).
With `CN(C)c1nc(N)nc(CSc2nnnn2-c2ccccc2)n1` the EC50 [7] was > 195 µM (not active).
In the case of `CC(C)(C)c1ccc(OCCC(=O)NCC(c2cccs2)N2CCOCC2)cc1` (configuration not stated), the EC50 [8] is reported as 1.97 µM (active).
With `Cc1ccc(C)n1-c1ccc(Br)cc1C(=O)O` the EC50 (Bcl-2-like protein 10) was 3.51 µM (active).
For `Brc1ccc(-c2csc(/N=C/N3CCCC3)n2)cc1`, the IC50 [9] was > 35 µM (not active) and the IC50 [10] was > 35 µM (not active).
